# Reference: patent US20250352555A1, “METHOD OF INCREASING IMMUNE CELL ACTIVATION AND/OR TREATING CANCER USING DIBENZOXAZEPINONES” (VASCULAR THERAPEUTICS PTY LTD, priority 2022, published 2025)
# Key:
# IFN-γ = test: Mouse serum IFN-γ levels by ELISA; assay type: in vivo; settings: B16F10 tumor-bearing mice Day 17, 200 mg/kg i.p., vs vehicle
# Description: Mouse serum IFN-γ levels. Whole blood was collected from Day 17 mice and spun at 1500 g for 10 min at 4° C. Serum was extracted from the top layer and stored at −80° C. IFN-γ levels were measured using the mouse IFN-γ (Improved) ELISA kit (Invitrogen, cat. no. KMC4021) according to the manufacturer's protocol, with absorbance being read at 450 nm. GraphPad Prism 9 software was used to generate the standard curve. IFN-γ levels in mouse serum were measured alongside the standard curve by using GraphPad Prism 9.
# IFN-γ is a biomarker of cellular immunity and the antitumor immune response. Elevated IFN-γ is associated with a systemic immune response in cancer patients and tumor-bearing mice after immune checkpoint therapy. Since IFN-γ is produced by T cells, levels of IFN-γ in the sera of tumor-bearing mice treated with vehicle or BT2 were determined.
# CD28 = CD28 blockade experiment, JUN Western blot in Jurkat T cells; assay type: cell-based, human; settings: 3 μM BT2 and 3 μM EGF, 24 h
# Description: CD28 blockade experiments. BT2 (3 nmol), vehicle or a mix of BT2 (3 nmol) and recombinant CD28 (3 nmol, Sino biological cat. no. 90182-C08H) or EGF (3 nmol, Sigma cat. no. E9644) in 150 μl growth medium (10% FBS/RPMI 1640 medium) was preincubated for 30 min at 37° C. The mixtures were added to 12-well plates containing 850 μl of 10% FBS/RPMI 1640 medium and 0.5×10^6 Jurkat T cells/well. After 24 h, total cell lysates were prepared in RIPA buffer. Lysates (10 μg) were resolved by SDS-PAGE and transferred to Immobilon-P polyvinylidene difluoride (PVDF) membranes (Millipore, USA). Membranes were blocked with 5% skim milk and incubated with rabbit monoclonal anti-JUN (Abcam, cat. no. ab32137) antibody, mouse monoclonal β-actin antibody (Sigma-Aldrich, cat. no. A5316), This was followed by incubation with horseradish peroxidase-conjugated secondary goat anti-rabbit (DAKO, cat. no. P0448) or goat anti-mouse (DAKO, cat. no. P0447) antibody. Chemiluminescence was detected using the Western Lightning Chemiluminescence system (Thermo Scientific, USA) and ImageQuant™ LAS 4000 biomolecular imager (GE Healthcare Life Sciences, USA). Band intensity in images generated with the LAS 4000 was quantified using NIH Image J. […]
# CD3 = test: Immunohistochemistry of B16F10 tumors (Day 17), CD3; assay type: in vivo, mouse; settings: B16F10 tumors Day 17, 200 mg/kg i.p.
# Text: Immunohistochemical staining and analyses. Rabbit monoclonal anti-CD3 (cat. no. ab16669; mouse, rat and human reactive), rabbit monoclonal anti-PD-1 (cat. no. ab214421), rabbit monoclonal anti-CD68 (cat. no. ab125212) antibodies were obtained from Abcam, rabbit monoclonal anti-phospho-ERK (Thr^202/Tyr^204) (cat. no. CST4370), rabbit monoclonal total ERK (cat. no. CST4695), antibodies were obtained from Cell Signaling Technology. Rabbit polyclonal anti-PD-L1 (cat. no. PA5-20343) antibody was obtained from ThermoFisher.
# Formalin fixed, paraffin embedded sections were prepared from tumors. Heat-induced epitope retrieval was applied to all deparaffinized sections (4 μm sections on Superfrost slides) with citrate buffer, pH 6.0 for 5 min at 110° C. Sections were blocked with Dual Endogenous Enzyme Block (DAKO, S2003) for 10 min and then with 2% skim milk for 20 min. Slides were incubated with primary antibody for 60 min at room temperature or overnight at 4° C. and then for 10 min with probe of MACH3 Rabbit AP-Polymer Detection solution (Biocare Medical, M3R533 G, H, L). […] Integrated optical density (IOD) or area of positive staining (red chromagen) was assessed using Image-Pro Plus software (Cybernetics, Bethesda, MD, USA). Positive staining was the average of quantitation in 4-8 fields of view under 20× or 40× objectives. […]
# A375 cells = test: Apoptosis, flow cytometry with Annexin V-FITC, A375; assay type: cell-based, human; settings: 1 μM, 24 h
# Description: Flow cytometry with Annexin V-FITC. Cells were seeded into 6 well plates in normal culture medium containing 10% FBS. After culturing overnight, the cells were incubated in complete medium containing vehicle, BT2 or SCH772984 at 1 μM and left for 24 h. The culture medium was removed and the cells were washed with PBS. Accutase (Stem Cell Technologies, cat. no. 07920) was used to detach the cells. The cells were then washed and centrifuged at 300 g for 5 min and resuspended at 1×10^6 cells/ml in 500 μl of 1× binding buffer (Annexin V-FITC Apoptosis Staining/Detection Kit, Abcam, cat. no. ab14085). The cells were transferred to 12×75 mm tubes and annexin V-FITC/propidium iodide (PI) was added and incubated for 5 min at 22° C. protected from light. Stained cell suspensions were analyzed by flow cytometry using a BD LSRFortessa X20.
# The morphology of A375 and MeWo cells exposed to 1 μM of BT2 or SCH772984 for 24 h was also assessed.
# inflammation = settings: arthritic mice (Yeh et al., 2021); cited from earlier work
structure (smiles),measurement,setting,value
"CCOC(=O)Nc1ccc2c(c1)C(=O)N(CC)c1ccccc1O2 [BT2, (10-ethyl-11-oxo-10,11-dihydro-dibenzo[b,f][1,4]oxazepin-2-yl)-carbamic acid ethyl ester]",circulating (serum) IFN-γ levels,IFN-γ,elevated
same,induction of JUN after preincubation of BT2 with EGF,CD28,still induced JUN
same,CD3+ staining in the tumor periphery (within 250 μm) (IHC),CD3,stimulated CD3^+ staining in the tumor periphery
same,apoptosis (Annexin V-FITC+ PI−),A375 cells,increased apoptosis
same,anti-inflammatory properties,inflammation,possesses anti-inflammatory properties
